Measurements published in patent publication US20120121591A1 (priority 2009, published 2012).
Where two headings read alike, the source gives them in different places.

Experiments:
Format in all cases: cell-based
hKv1.3 = hKv1.3 (Homo sapiens, UniProt P22001); experiment: cell-based; details: Kv1.3 (IWQ) IC50 (nM, Avg)
[1] = test system: IFN-g secretion from T cells in human whole blood
[2] = test system: IL-2 secretion from T cells in human whole blood; details: read-out: WB (IL-2) IC50 (nM, Avg)
[3] = read-out: WB (IFNg) IC50 (nM, Avg)

Sequence of hKv1.3 (P22001 whole entry): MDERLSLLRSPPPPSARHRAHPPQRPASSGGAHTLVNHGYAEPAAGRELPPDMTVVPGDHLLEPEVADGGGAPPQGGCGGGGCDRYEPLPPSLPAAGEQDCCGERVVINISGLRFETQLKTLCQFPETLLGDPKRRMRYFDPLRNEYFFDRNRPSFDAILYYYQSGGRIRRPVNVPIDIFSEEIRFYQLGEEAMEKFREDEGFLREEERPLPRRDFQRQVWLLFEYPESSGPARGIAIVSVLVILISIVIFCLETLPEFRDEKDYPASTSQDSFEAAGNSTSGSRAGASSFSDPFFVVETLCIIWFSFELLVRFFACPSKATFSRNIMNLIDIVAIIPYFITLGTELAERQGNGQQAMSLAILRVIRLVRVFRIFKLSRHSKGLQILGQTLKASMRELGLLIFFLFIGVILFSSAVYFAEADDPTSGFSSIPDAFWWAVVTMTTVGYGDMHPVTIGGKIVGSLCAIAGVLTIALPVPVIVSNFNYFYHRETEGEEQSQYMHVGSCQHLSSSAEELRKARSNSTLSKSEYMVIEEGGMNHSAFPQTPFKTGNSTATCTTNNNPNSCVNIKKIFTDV

Compound | IC50 (hKv1.3) [nM] | IC50 [1, 3] [nM] | IC50 [2] [nM] | IC50 ([1]; read-out: WB (IFNg) IC5- (nM, Avg)) [nM]
CC[C@H](C)[C@@H]1NC(=O)[C@@H](NC(=O)[C@H](CO)NC(=O)[C@@H](N)CCCNC(=N)N)CSSC[C@@H](C(=O)O)NC(=O)[C@H]([C@@H](C)O)NC(=O)CNC(=O)[C@@H]2CSSC[C@@H]3NC(=O)[C@H](CCC(N)=O)NC(=O)[C@H](CCCNC(=N)N)NC(=O)[C@H](C)NC(=O)[C@H]([C@@H](C)O)NC(=O)[C@H](CSSC[C@H](NC(=O)[C@H](Cc4ccccc4)NC(=O)[C@H](CO)NC(=O)[C@H](CC(C)C)NC(=O)[C@H](CCCNC(=N)N)NC(=O)[C@H](Cc4ccc(O)cc4)NC(=O)[C@H](CCCCN)NC(=O)[C@H](CCSC)NC(=O)[C@H](CO)NC(=O)[C@H](Cc4c[nH]cn4)NC(=O)[C@H](CCCCN)NC3=O)C(=O)N[C@@H](CCCNC(=N)N)C(=O)N[C@@H](CCCCN)C(=O)N[C@@H]([C@@H](C)O)C(=O)N2)NC(=O)[C@H](CCCNC(=N)N)NC(=O)[C@H](CO)NC(=O)[C@H](CCCCN)NC(=O)[C@@H]2CCCN2C(=O)[C@H]([C@@H](C)CC)NC(=O)[C@H]([C@@H](C)O)NC(=O)[C@H](CC(=O)O)NC1=O [[Arg15]ShK] | 0.088 | 0.204 | 0.162 | –
CC[C@H](C)[C@@H]1NC(=O)[C@@H](NC(=O)[C@H](CO)NC(=O)[C@@H](N)CCCNC(=N)N)CSSC[C@@H](C(=O)O)NC(=O)[C@H]([C@@H](C)O)NC(=O)CNC(=O)[C@@H]2CSSC[C@@H]3NC(=O)[C@H](CCC(N)=O)NC(=O)[C@H](Cc4ccccc4)NC(=O)[C@H](C)NC(=O)[C@H]([C@@H](C)O)NC(=O)[C@H](CSSC[C@H](NC(=O)[C@H](Cc4ccccc4)NC(=O)[C@H](CO)NC(=O)[C@H](CC(C)C)NC(=O)[C@H](CCCNC(=N)N)NC(=O)[C@H](Cc4ccc(O)cc4)NC(=O)[C@H](CCCCN)NC(=O)[C@H](CCCNC(=N)N)NC(=O)[C@H](CO)NC(=O)[C@H](Cc4c[nH]cn4)NC(=O)[C@H](CCCCN)NC3=O)C(=O)N[C@@H](CCCNC(=N)N)C(=O)N[C@@H](CCCCN)C(=O)N[C@@H]([C@@H](C)O)C(=O)N2)NC(=O)[C@H](CCCNC(=N)N)NC(=O)[C@H](CO)NC(=O)[C@H](CCCCN)NC(=O)[C@@H]2CCCN2C(=O)[C@H]([C@@H](C)CC)NC(=O)[C@H]([C@@H](C)O)NC(=O)[C@H](CC(=O)O)NC1=O [[Arg21]ShK] | 0.283 | 4.66 | 1.76 | –
CC[C@H](C)[C@@H]1NC(=O)[C@H]([C@@H](C)O)NC(=O)[C@H](CC(=O)O)NC(=O)[C@H](CCC(=O)O)NC(=O)[C@@H](NC(=O)[C@H](CO)NC(=O)[C@@H](N)CCCNC(=N)N)CSSC[C@@H](C(N)=O)NC(=O)[C@H]([C@@H](C)O)NC(=O)CNC(=O)[C@@H]2CSSC[C@@H]3NC(=O)[C@H](CCCCN)NC(=O)[C@H](Cc4ccccc4)NC(=O)[C@H](C)NC(=O)[C@H]([C@@H](C)O)NC(=O)[C@H](CSSC[C@H](NC(=O)[C@H](Cc4ccccc4)NC(=O)[C@H](CO)NC(=O)[C@H](CC(C)C)NC(=O)[C@H](CCCNC(=N)N)NC(=O)[C@H](Cc4ccc(O)cc4)NC(=O)[C@H](CCCCN)NC(=O)[C@H](CCSC)NC(=O)[C@H](CO)NC(=O)[C@H](Cc4c[nH]cn4)NC(=O)[C@H](CCCCN)NC3=O)C(=O)N[C@@H](CCCCN)C(=O)N[C@@H](CCCNC(=N)N)C(=O)N[C@@H]([C@@H](C)O)C(=O)N2)NC(=O)[C@H](CCCNC(=N)N)NC(=O)[C@H](CO)NC(=O)[C@H](CCCCN)NC(=O)[C@@H]2CCCN2C1=O [[Glu4; Lys16,29;Arg30]ShK-amide] | 0.104 | 0.28 | 0.067 | –
CCC[C@@H]1NC(=O)[C@H](CO)NC(=O)[C@H](Cc2c[nH]cn2)NC(=O)[C@H](CCCCN)NC(=O)[C@@H]2CSSC[C@@H]3NC(=O)[C@H]([C@@H](C)O)NC(=O)[C@H](CCCCN)NC(=O)[C@H](CCCNC(=N)N)NC(=O)[C@H](CSSC[C@H](NC(=O)[C@H](CCCNC(=N)N)NC(=O)[C@H](CO)NC(=O)[C@H](CCCCN)NC(=O)[C@@H]4CCCN4C(=O)[C@H]([C@@H](C)CC)NC(=O)[C@H]([C@@H](C)O)NC(=O)[C@H](CC(=O)O)NC(=O)[C@H]([C@@H](C)CC)NC(=O)[C@@H](NC(=O)[C@H](CO)NC(=O)[C@@H](N)CCCNC(=N)N)CSSC[C@@H](C(=O)N[C@H](C(N)=O)[C@@H](C)O)NC(=O)[C@H]([C@@H](C)O)NC(=O)CNC3=O)C(=O)N[C@@H]([C@@H](C)O)C(=O)N[C@@H](C)C(=O)N[C@@H](Cc3ccccc3)C(=O)N[C@@H](CCCCN)C(=O)N2)NC(=O)[C@H](Cc2ccccc2)NC(=O)[C@H](CO)NC(=O)[C@H](CC(C)C)NC(=O)[C@H](CCCNC(=N)N)NC(=O)[C@H](Cc2ccc(O)cc2)NC(=O)[C@H](CCCCN)NC1=O [[Lys16,Nva21]ShK-Thr-amide] | 0.03 | 0.702 | 0.385 | –
CC[C@H](C)[C@@H]1NC(=O)[C@@H](NC(=O)[C@H](CO)NC(=O)[C@@H](N)CCCNC(=N)N)CSSC[C@@H](C(N)=O)NC(=O)[C@H]([C@@H](C)O)NC(=O)CNC(=O)[C@@H]2CSSC[C@@H]3NC(=O)[C@H](CCCCN)NC(=O)[C@H](Cc4ccccc4)NC(=O)[C@H](C)NC(=O)[C@H]([C@@H](C)O)NC(=O)[C@H](CSSC[C@H](NC(=O)[C@H](Cc4ccccc4)NC(=O)[C@H](CO)NC(=O)[C@H](CC(C)C)NC(=O)[C@H](CCCNC(=N)N)NC(=O)[C@H](Cc4ccc(O)cc4)NC(=O)[C@H](CCCCN)NC(=O)[C@H](CCSC)NC(=O)[C@H](CO)NC(=O)[C@H](Cc4c[nH]cn4)NC(=O)[C@H](CCCCN)NC3=O)C(=O)N[C@@H](CCCNC(=N)N)C(=O)N[C@@H](CCC(=O)O)C(=O)N[C@@H]([C@@H](C)O)C(=O)N2)NC(=O)[C@H](CCCNC(=N)N)NC(=O)[C@H](CO)NC(=O)[C@H](CCCCN)NC(=O)[C@@H]2CCCN2C(=O)[C@H]([C@@H](C)CC)NC(=O)[C@H]([C@@H](C)O)NC(=O)[C@H](CC(=O)O)NC1=O [[Lys16, Glu30]ShK-amide] | 0.028 | 0.144 | 0.105 | –
CC[C@H](C)[C@@H]1NC(=O)[C@@H](NC(=O)[C@H](CO)NC(=O)[C@@H](N)CCC(=O)O)CSSC[C@@H](C(=O)O)NC(=O)[C@H]([C@@H](C)O)NC(=O)CNC(=O)[C@@H]2CSSC[C@@H]3NC(=O)[C@H](CCC(N)=O)NC(=O)[C@H](Cc4ccccc4)NC(=O)[C@H](C)NC(=O)[C@H]([C@@H](C)O)NC(=O)[C@H](CSSC[C@H](NC(=O)[C@H](Cc4ccccc4)NC(=O)[C@H](CO)NC(=O)[C@H](CC(C)C)NC(=O)[C@H](CCCNC(=N)N)NC(=O)[C@H](Cc4ccc(O)cc4)NC(=O)[C@H](CCCCN)NC(=O)[C@H](CCSC)NC(=O)[C@H](CO)NC(=O)[C@H](Cc4c[nH]cn4)NC(=O)[C@H](CCCCN)NC3=O)C(=O)N[C@@H](CCCNC(=N)N)C(=O)N[C@@H](CCCCN)C(=O)N[C@@H]([C@@H](C)O)C(=O)N2)NC(=O)[C@H](CCCNC(=N)N)NC(=O)[C@H](CO)NC(=O)[C@H](CCCCN)NC(=O)[C@@H]2CCCN2C(=O)[C@H]([C@@H](C)CC)NC(=O)[C@H]([C@@H](C)O)NC(=O)[C@H](CC(=O)O)NC1=O [[Glu1]ShK] | 0.144 | – | 0.213 | 0.249
